Experimental data taken from publication PMC9739180, “Discovery of a Flavonoid FM04 as a Potent Inhibitor to Reverse P-Glycoprotein-Mediated Drug Resistance in Xenografts and Improve Oral Bioavailability of Paclitaxel” (International Journal of Molecular Sciences, 2022).

Key:
LCC6 cells = test: IC50 of anticancer drugs in wild-type LCC6 with or without FM04; format: cell-based, human
Text: Table S1. IC50 of anticancer drugs in LCC6 and LCC6MDR and P-gp modulating activity of FM04.
fold): IC50 of an anticancer drug of LCC6MDR without FM04/IC50 of an anticancer of LCC6 with or without
FM04 or LCC6MDR with FM04. N = 2 - 8 independent experiment. The IC50 values were presented as mean ±
standard error mean. /: not determined.

P-gp = P-gp (Homo sapiens, UniProt P08183); test: Transepithelial transport of PTX, Caco-2 transwell assay; format: in vitro ADME
Experimental: Figure 7 Mechanistic study of FM04 to increase the oral PTX absorption. (A) transepithelial permeability of PTX in Caco-2 transwell assay. When confluent monolayer of Caco2 cells was formed on the transwell, the permeability of PTX (10 μM) was studied with or without FM04 (10 μM). For apical to basolateral transport (A to B), compound was added at the apical side (donor) and samples of the medium collected at the basal side (receiver) at 0, 20, 40, 60, 80, 100 and 120 min and vice versa for basal to apical transport (B to A). The PTX level was determined using UPLC-MS/MS. The relative % of PTX was presented as mean ± standard error of mean. N = 2–3 independent experiments. Impact of FM04 on PTX metabolism. […] After incubation, the levels of PTX, metabolites 6α-hydroxpaclitaxel (6α-OHP) and p3′-hydroxpaclitaxel (p3-OHP) were determined by HPLC-MS/MS. (B) changes in PTX. […]
Caco-2 cells in between passage number 21 and 30 were used for the experiment, 1 × 10^5 cells/cm^2 Caco-2 cells were seeded in Costar 6-well transwell plate (Corning Inc). […] The integrity of cell monolayers was evaluated on the day of experiments by measuring the trans-epithelial electrical resistance (TEER) of the cell monolayers. […] Drug transport was evaluated at 37 °C by incubating the cells in media containing PTX (10 μM) with or without FM04 (10 μM) at the donor chamber and samples collected at the receiver chamber. […]

Sequence of P-gp (P08183 whole entry): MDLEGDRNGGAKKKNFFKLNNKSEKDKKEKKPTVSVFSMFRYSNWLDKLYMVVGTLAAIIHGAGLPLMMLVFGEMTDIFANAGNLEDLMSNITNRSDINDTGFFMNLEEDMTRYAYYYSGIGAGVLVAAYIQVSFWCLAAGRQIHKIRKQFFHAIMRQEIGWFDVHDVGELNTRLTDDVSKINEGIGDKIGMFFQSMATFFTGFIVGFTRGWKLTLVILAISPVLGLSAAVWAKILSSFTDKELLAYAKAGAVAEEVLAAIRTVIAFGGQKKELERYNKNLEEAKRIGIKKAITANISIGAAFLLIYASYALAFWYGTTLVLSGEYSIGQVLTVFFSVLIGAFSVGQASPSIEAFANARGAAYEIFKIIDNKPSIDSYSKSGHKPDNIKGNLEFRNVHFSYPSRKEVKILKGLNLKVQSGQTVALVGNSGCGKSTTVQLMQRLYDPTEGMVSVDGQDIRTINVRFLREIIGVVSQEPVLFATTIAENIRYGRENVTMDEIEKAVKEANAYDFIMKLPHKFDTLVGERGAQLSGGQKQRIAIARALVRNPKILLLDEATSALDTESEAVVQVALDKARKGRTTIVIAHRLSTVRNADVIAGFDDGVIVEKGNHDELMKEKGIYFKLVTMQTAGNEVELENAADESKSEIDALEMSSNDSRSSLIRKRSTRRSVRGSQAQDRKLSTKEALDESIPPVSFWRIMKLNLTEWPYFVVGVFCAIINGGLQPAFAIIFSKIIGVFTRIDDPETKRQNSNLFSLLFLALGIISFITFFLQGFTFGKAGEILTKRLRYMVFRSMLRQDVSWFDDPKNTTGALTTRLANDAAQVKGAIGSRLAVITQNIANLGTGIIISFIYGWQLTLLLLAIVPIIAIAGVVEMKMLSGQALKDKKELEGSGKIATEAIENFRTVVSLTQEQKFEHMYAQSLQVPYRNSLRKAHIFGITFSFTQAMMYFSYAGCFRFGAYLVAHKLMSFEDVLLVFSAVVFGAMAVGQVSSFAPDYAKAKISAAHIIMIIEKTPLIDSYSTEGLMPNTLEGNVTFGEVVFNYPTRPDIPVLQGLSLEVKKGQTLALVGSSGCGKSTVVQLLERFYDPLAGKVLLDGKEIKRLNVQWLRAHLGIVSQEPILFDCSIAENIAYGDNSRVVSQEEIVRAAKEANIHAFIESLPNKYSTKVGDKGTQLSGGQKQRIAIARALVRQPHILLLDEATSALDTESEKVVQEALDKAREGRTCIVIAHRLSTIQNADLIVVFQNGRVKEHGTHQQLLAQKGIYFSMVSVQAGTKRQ

SMILES	IC50 (LCC6 cells; Homo sapiens, LCC-6, wild-type LCC6, no modulator, read-out: IC50 of anticancer drug, LCC6 + DMSO)	RF, LCC6 + DMSO (LCC6 cells; IC50 in LCC6MDR without FM04 / IC50 in LCC6)	RF, LCC6 + 1 μM FM04 (LCC6 cells; IC50 in LCC6MDR without FM04 / IC50 in LCC6 with FM04)	direction of transepithelial transport of PTX (P-gp; PTX 10 µM without FM04)	chemosensitization of wild-type LCC6 towards PTX, vinblastine and vincristine (LCC6 cells; FM04 1 μM)	decrease of PTX transport from B to A (P-gp; PTX 10 μM + FM04 10 μM)
CC(=O)O[C@H]1C(=O)[C@@]2(C)[C@H]([C@H](OC(=O)c3ccccc3)[C@]3(O)C[C@H](OC(=O)[C@H](O)[C@@H](NC(=O)c4ccccc4)c4ccccc4)C(C)=C1C3(C)C)[C@]1(OC(C)=O)CO[C@@H]1C[C@@H]2O [PTX, paclitaxel]	2.1 ± 0.5 nM	61.7	43.2	only pumped from B to A, but not A to B		
O=c1cc(-c2ccc(OCCOCCNCc3ccccc3)cc2)oc2ccccc12 [FM04, 2-(4-(2-(2-(benzylamino)ethoxy)ethoxy)phenyl)-4H-chromen-4-one]					did not chemosensitize the wild-type LCC6 cells	17%
